From ChEMBL document CHEMBL3421596, “A facile synthesis and microtubule-destabilizing properties of 4-(1H-benzo[d]imidazol-2-yl)-furazan-3-amines” (Eur J Med Chem, 2015)
The source made the active and inactive calls. No cut-off for these calls is given here.

Legend:
SF-539 = assay: Cytotoxicity against human SF539 cells; format: functional
MDA-MB-435 = assay: Cytotoxicity against human MDA-MB-435 cells; format: functional
[1] = Cytotoxicity against human OVCAR3 cells; format: functional
[2] = Cytotoxicity against human OVCAR8 cells; format: functional
[3] = Cytotoxicity against human NCI-ADR-RES cells; format: functional
RXF 393 = assay: Cytotoxicity against human RXF393 cells; format: functional
Paracentrotus lividus [4] = assay: Antiproliferative activity in sea urchin embryo assessed as antimitotic activity by measuring cleavage alteration exposed for 8 to 20 mins after fertilization and 45 to 55 mins before first mitotic cycle completion measured 2.5 to […] after fertilization; format: functional
Paracentrotus lividus [5] = assay: Antiproliferative activity in sea urchin embryo assessed as antimitotic activity by measuring cleavage arrest exposed for 8 to 20 mins after fertilization and 45 to 55 mins before first mitotic cycle completion measured 2.5 to […] after fertilization; format: functional
Paracentrotus lividus [6] = assay: Antiproliferative activity in sea urchin embryo assessed as destabilization of microtubule by measuring embryo spinning after 15 mins to 20 hrs; format: functional
Paracentrotus lividus [7] = assay: Antiproliferative activity in sea urchin embryo assessed as destabilization of microtubule by tuberculate eggs after 15 mins to 20 hrs; format: functional, organism-based
[8] = Cytotoxicity against human NCI60 cells; format: functional
Tubulin = Tubulin (Bos taurus, UniProt Q6B856+Q862L2+Q862F3); assay: Inhibition of bovine tubulin polymerization by turbidity assay; format: protein assay
[9] = Cytotoxicity against human HCT116 cells; format: functional; conditions: HCT-116
[10] = Cytotoxicity against human HCT15 cells; format: functional; conditions: HCT-15
HT-29 = assay: Cytotoxicity against human HT-29 cells; format: functional
KM12 = assay: Cytotoxicity against human KM12 cells; format: functional
SW-620 = assay: Cytotoxicity against human SW620 cells; format: functional
SF-268 = assay: Cytotoxicity against human SF268 cells; format: functional
SNB-19 = assay: Cytotoxicity against human SNB19 cells; format: functional
U-251 = assay: Cytotoxicity against human U251 cells; format: functional
LOX IMVI = assay: Cytotoxicity against human LOXIMVI cells; format: functional
Malme-3M = assay: Cytotoxicity against human MALME-3M cells; format: functional
M14 = assay: Cytotoxicity against human M14 cells; format: functional
SK-MEL-2 = assay: Cytotoxicity against human SK-MEL-2 cells; format: functional
SK-MEL-28 = assay: Cytotoxicity against human SK-MEL-28 cells; format: functional
SK-MEL-5 = assay: Cytotoxicity against human SK-MEL-5 cells; format: functional
[11] = Cytotoxicity against human UACC257 cells; format: functional; conditions: UACC-257
[12] = Cytotoxicity against human UACC62 cells; format: functional; conditions: UACC-62
IGROV-1 = assay: Cytotoxicity against human IGROV1 cells; format: functional
[13] = Cytotoxicity against human OVCAR4 cells; format: functional; conditions: OVCAR-4
[14] = Cytotoxicity against human OVCAR5 cells; format: functional; conditions: OVCAR-5
[15] = Cytotoxicity against human SKOV3 cells; format: functional; conditions: SK-OV-3
786-0 = assay: Cytotoxicity against human 786-0 cells; format: functional
A498 = assay: Cytotoxicity against human A498 cells; format: functional
ACHN = assay: Cytotoxicity against human ACHN cells; format: functional
CAKI-1 = assay: Cytotoxicity against human Caki1 cells; format: functional
SN12C = assay: Cytotoxicity against human SN12C cells; format: functional
TK-10 = assay: Cytotoxicity against human TK10 cells; format: functional
[16] = Cytotoxicity against human UO31 cells; format: functional; conditions: UO-31
[17] = Cytotoxicity against human PC3 cells; format: functional; conditions: PC-3
DU-145 = assay: Cytotoxicity against human DU145 cells; format: functional
MCF7 = assay: Cytotoxicity against human MCF7 cells; format: functional
MDA-MB-231 = assay: Cytotoxicity against human MDA-MB-231 cells; format: functional
[18] = Cytotoxicity against human Hs578T cells; format: functional; conditions: Hs-578T
BT-549 = assay: Cytotoxicity against human BT549 cells; format: functional
T47D = assay: Cytotoxicity against human T47D cells; format: functional
MDA-MB-468 = assay: Cytotoxicity against human MDA-MB-468 cells; format: functional
SNB-75 = assay: Cytotoxicity against human SNB75 cells; format: functional
HOP-92 = assay: Cytotoxicity against human HOP92 cells; format: functional
CCRF-CEM = assay: Cytotoxicity against human CCRF-CEM cells; format: functional
HL-60(TB) = assay: Cytotoxicity against human HL-60(TB) cells; format: functional
K562 = assay: Cytotoxicity against human K562 cells; format: functional
MOLT-4 = assay: Cytotoxicity against human MOLT4 cells; format: functional
RPMI-8226 = assay: Cytotoxicity against human RPMI8226 cells; format: functional
SR = assay: Cytotoxicity against human SR cells; format: functional
A549 = assay: Cytotoxicity against human A549 cells; format: functional
HOP-62 = assay: Cytotoxicity against human HOP62 cells; format: functional
NCI-H226 = assay: Cytotoxicity against human NCI-H226 cells; format: functional
NCI-H23 = assay: Cytotoxicity against human NCI-H23 cells; format: functional
NCI-H322M = assay: Cytotoxicity against human NCI-H322M cells; format: functional
NCI-H460 = assay: Cytotoxicity against human NCI-H460 cells; format: functional
NCI-H522 = assay: Cytotoxicity against human NCI-H522 cells; format: functional
COLO 205 = assay: Cytotoxicity against human COLO205 cells; format: functional
HCC 2998 = assay: Cytotoxicity against human HCC2998 cells; format: functional

For CC[C@]1(O)C[C@@H]2CN(CCc3c([nH]c4ccccc34)[C@@](C(=O)OC)(c3cc4c(cc3OC)N(C)[C@H]3[C@@](O)(C(=O)OC)[C@H](OC(C)=O)[C@]5(CC)C=CCN6CC[C@]43[C@@H]65)C2)C1 [VINBLASTINE], the TGI (SF-539) was 2.5 nM, the GI50 (SF-539; read-out: GI50) was 0.6 nM and the TGI (MDA-MB-435) was 0.25 nM. The GI50 (MDA-MB-435; read-out: GI50) was 0.25 nM, the CC50 (MDA-MB-435; read-out: LC50 (the source's name)) was 1 nM and the TGI ([1]; OVCAR-3) was 1.6 nM. The GI50 ([1]; OVCAR-3, read-out: GI50) was 0.3 nM, the CC50 ([1]; OVCAR-3, read-out: LC50 (the source's name)) was 500 nM and the TGI ([2]; OVCAR-8) was 320 nM. It also gave a GI50 ([2]; OVCAR-8, read-out: GI50) of 1.6 nM, a CC50 ([2]; OVCAR-8, read-out: LC50 (the source's name)) of 2000 nM and a TGI [3] of 790 nM. The GI50 ([3]; read-out: GI50) was 100 nM, the TGI (RXF 393) was 50 nM and the GI50 (RXF 393; read-out: GI50) was 1 nM. The EC (Paracentrotus lividus [4]) was 0.1 µM, the EC (Paracentrotus lividus [5]) was 0.2 µM and the EC (Paracentrotus lividus [6]) was 2 µM. For the same compound, the Activity (Paracentrotus lividus [7]) was “Active” and the GI50 [8] was 1.37 nM.
In the case of Nc1nonc1-c1nc2ccccc2n1Cc1cccc(Br)c1, the IC50 (Tubulin) is reported as 2040 nM.
Nc1nonc1-c1nc2ccccc2n1Cc1cccc(F)c1 gave an EC (Paracentrotus lividus [4]) of 0.5 µM, an EC (Paracentrotus lividus [5]) greater than 4 µM and an EC (Paracentrotus lividus [6]) greater than 4 µM. The IC50 (Tubulin) was 7900 nM.
With Nc1nonc1-c1nc2ccccc2n1CC(=O)Nc1ccccc1Cl the IC50 (Tubulin) was 7360 nM.
For COc1cccc(Cn2c(-c3nonc3N)nc3ccccc32)c1, the GI50 [9] was 389 nM, the GI50 [10] was 380 nM and the GI50 (HT-29) was 316 nM. For the same compound, the GI50 (KM12) was 501 nM, the GI50 (SW-620) was 363 nM and the GI50 (SF-268) was 759 nM. The GI50 (SF-539; read-out: pGI50 (converted)) was 214 nM, the GI50 (SNB-19) was 741 nM and the GI50 (U-251) was 437 nM. The GI50 (LOX IMVI) was 537 nM, the GI50 (Malme-3M) was 525 nM and the GI50 (M14) was 275 nM. It also gave a GI50 (MDA-MB-435; read-out: pGI50 (converted)) of 182 nM, a GI50 (SK-MEL-2) of 288 nM and a GI50 (SK-MEL-28) of 813 nM. For the same compound, the GI50 (SK-MEL-5) was 331 nM, the GI50 [11] was 316 nM and the GI50 [12] was 513 nM. For the same compound, the GI50 (IGROV-1) was 603 nM, the GI50 ([1]; OVCAR-3, read-out: pGI50 (converted)) was 263 nM and the GI50 [13] was 8710 nM. The GI50 [14] was 550 nM, the GI50 ([2]; OVCAR-8, read-out: pGI50 (converted)) was 525 nM and the GI50 ([3]; read-out: pGI50 (converted)) was 316 nM. For the same compound, the GI50 [15] was 437 nM, the GI50 (786-0) was 437 nM and the GI50 (A498) was 275 nM. For the same compound, the GI50 (ACHN) was 550 nM, the GI50 (CAKI-1) was 417 nM and the GI50 (RXF 393; read-out: pGI50 (converted)) was 275 nM. The GI50 (SN12C) was 646 nM, the GI50 (TK-10) was 724 nM and the GI50 [16] was 589 nM. It also gave a GI50 [17] of 447 nM, a GI50 (DU-145) of 603 nM and a GI50 (MCF7) of 398 nM. The GI50 (MDA-MB-231) was 955 nM, the GI50 [18] was 339 nM and the GI50 (BT-549) was 363 nM. The GI50 (T47D) was 501 nM, the GI50 (MDA-MB-468) was 240 nM and the GI50 (SNB-75) was 295 nM. For the same compound, the GI50 (HOP-92) was 372 nM, the EC (Paracentrotus lividus [4]) was 0.2 µM and the EC (Paracentrotus lividus [5]) was 2 µM. For the same compound, the EC (Paracentrotus lividus [6]) was greater than 5 µM, the Activity (Paracentrotus lividus [7]) was “Active” and the GI50 [8] was 457 nM. For the same compound, the GI50 (CCRF-CEM) was 339 nM, the GI50 (HL-60(TB)) was 263 nM and the GI50 (K562) was 347 nM. It also gave a GI50 (MOLT-4) of 724 nM, a GI50 (RPMI-8226) of 363 nM and a GI50 (SR) of 263 nM. The GI50 (A549) was 617 nM, the GI50 (HOP-62) was 468 nM and the GI50 (NCI-H226) was 525 nM. It also gave a GI50 (NCI-H23) of 832 nM, a GI50 (NCI-H322M) of 871 nM and a GI50 (NCI-H460) of 363 nM. The GI50 (NCI-H522) was 229 nM, the GI50 (COLO 205) was 372 nM and the GI50 (HCC 2998) was 1170 nM.
